Assay results as given in article PMC10610505, “Synthesis and Biological Evaluation of Some New 3-Aryl-2-thioxo-2,3-dihydroquinazolin-4(1H)-ones and 3-Aryl-2-(benzylthio)quinazolin-4(3H)-ones as Antioxidants; COX-2, LDHA, α-Glucosidase and α-Amylase Inhibitors; and Anti-Colon Carcinoma and Apoptosis-Inducing Agents” (Pharmaceuticals, 2023).
Where “and” joins values, the source holds several entries; their conditions need not be identical. Equal values may be shown once. Read-outs that look alike come from different tables or passages of the source.

Tests used:
[1] = Viability assay (LDH release), HUVEC; format: cell-based, human; settings: human
Procedure: (§1) The samples were diluted in Dulbecco’s Modified Eagle’s Medium, consisting of 10% fetal bovine serum (FBS), added to cells grown and cultured for 24 h in a 5% CO2-humidified incubator at 37 °C. Thereafter, the activity of lactate dehydrogenase released from damaged cells was determined in the collected supernatant aliquots using an ELISA end-point assay (Benchmark Plus, Bio-Rad, CA, USA); 0.1% Triton X-100 in the assay medium and the assay medium only were used as the positive and negative controls, respectively. Cell viability was expressed as a relative percentage of the OD values (at 550 nm) for compound-treated cells (final concentration of 200 µg /mL) and the negative control, which was shown as the mean % ± SD (n = 3). The results of the viability assays for the potential cytotoxic candidates were compared with the % of viable human umbilical vein endothelial cells (HUVEC) at the same concentration. These cells were grown in Dulbecco’s Modified Eagle’s Medium (PAN-Biotech; Barcelona, Spain) containing 10% FBS (Sigma Aldrich; St. Quentin-Fallavier, France), 2 mM Glutamine (Sigma Aldrich), 100 units/mL penicillin and […] streptomycin (Life Technologies; Paisley, UK).

[2] = target: α-amylase; test: In vitro α-amylase (AA) inhibition assay; settings: mean ± SD of three replicates; for IC50: read-out: Mean IC50 α-Amylase (AA)
Procedure: Then, 180 µL of Labtest (the amylase substrate) was added and the samples were incubated for 8 min, followed by measuring the first reaction at 620 nm to obtain (X1). Afterwards, the reaction mixture was incubated for an additional 5 min at 37 °C; then, the second reaction was measured to obtain the final reading (X2). […] The results were expressed as IC50 µg/mL (as well as µM) and were determined from the standard curves.

[3] = test system: LoVo human colon carcinoma cells; test: Viability assay (LDH release), LoVo; format: cell-based; settings: Homo sapiens, LoVo; for viability at 200 µg/mL: 48 h, read-out: Mean % of viable cells ± SD, LoVo; for IC50: from concentration–response curves
Procedure: (§2) The anticancer activities of all the synthesized compounds were assessed against two human colon carcinoma cell lines, namely LoVo and HCT-116 (Table 6), via the determination of the mean percents of the viable cancerous cells remaining after being incubated with 200 µg/mL of each test compound for 48 h using LDH assay.
as §1

[4] = target: T1, COX-2 (Homo sapiens, UniProt P35354); test: COX-2 inhibitory screening assay (Cayman kit); format: biochemical; settings: for Increase in COX-2 inhibitory efficiency by duplicating the concentration: % inhibition at 0.200 mg/mL divided by % inhibition at 0.100 mg/mL; for inhibition at 100 µg/mL: at 0.100 mg/mL; for inhibition at 100 µg/mL / inhibition at 200 µg/mL: read-out: COX-2 mean % inhibition ± SD; for inhibition at 200 µg/mL: at 0.200 mg/mL
T1 construct: purchased Cayman Chemical Company 701080
T1 sequence (P35354 18-604): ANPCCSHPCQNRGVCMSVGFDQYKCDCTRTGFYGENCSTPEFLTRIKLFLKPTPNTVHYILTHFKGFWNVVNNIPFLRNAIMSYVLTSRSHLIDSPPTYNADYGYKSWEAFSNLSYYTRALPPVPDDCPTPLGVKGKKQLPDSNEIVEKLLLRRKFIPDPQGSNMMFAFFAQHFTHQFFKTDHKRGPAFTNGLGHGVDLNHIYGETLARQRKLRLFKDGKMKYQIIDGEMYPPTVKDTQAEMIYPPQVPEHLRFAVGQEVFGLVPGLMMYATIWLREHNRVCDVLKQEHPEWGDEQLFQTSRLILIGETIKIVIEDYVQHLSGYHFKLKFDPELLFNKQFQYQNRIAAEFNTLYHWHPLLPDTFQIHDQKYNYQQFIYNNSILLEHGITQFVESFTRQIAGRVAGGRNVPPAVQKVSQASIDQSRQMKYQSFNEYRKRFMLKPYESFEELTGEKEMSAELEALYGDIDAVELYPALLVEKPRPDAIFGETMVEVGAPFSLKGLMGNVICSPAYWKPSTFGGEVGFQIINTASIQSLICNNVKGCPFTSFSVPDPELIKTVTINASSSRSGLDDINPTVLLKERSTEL
Procedure: Each compound of the two series, 3a–h and 5a–h, was resuspended in 100% DMSO at a final concentration of 10 mg/mL. […] Briefly, 10 µL of the tested compound was added to a mixture of the reaction buffer solution (160 µL of 0.1 M Tris-HCl, pH 8.0, in the presence of 2 mM phenol and 5 mM EDTA), COX-2 (10 µL) and heme (10 µL). After a 10 min incubation at 37 °C, the reaction was started by adding arachidonic acid (10 µL), rapidly mixed and kept at 37 °C for 2 min. PGF2α generated via PGH2 reduction with stannous chloride (30 µL) was incubated at room temperature for 5 min. The PGF2α amount was then determined via an enzyme immunoassay. Prior to incubation with the COX-2 reaction (at room temperature 18 h), the 96-well plate was previously coated with a mouse anti-rabbit monoclonal antibody. Unbound reagents were removed by washing the plate followed by adding Ellman’s reagent to the well. The reaction product displaying a distinct yellow color was measured at 410 nm using a UV microplate reader. The % inhibition was calculated by comparing the PGF2α produced in the compound-treated samples with a control sample, using the following equation: % inhibition is equal to [([PGF2α]control − [PGF2α]sample) /[PGF2α ]control ] × 100. […] The COX-2 inhibitory efficiency was expressed as an inhibition percentage, which was determined via a comparison with the negative control experiments.

[5] = test system: HCT-116 human colon carcinoma cells; test: Viability assay (LDH release), HCT-116; format: cell-based; settings: Homo sapiens; for viability at 200 µg/mL: read-out: Mean % of viable cells ± SD, HCT-116; for IC50: HCT-116, from concentration–response curves
Procedure: as §2, §1

[6] = DPPH radical scavenging assay; format: biochemical; settings: for Mean IC50 for scavenging initial DPPH radicals: mean ± SD of three replicates; for IC50: mean ± SD, converted from mg/mL, read-out: Mean IC50 for scavenging initial DPPH radicals (converted)
Text: In principle, the antioxidant power of a compound in this assay is correlated to its tendency to reduce the stable, purple-colored DPPH radical through a hydrogen atom transfer (HAT) mechanism and/or a single electron transfer mechanism, thereby converting it to the yellow-colored 2,2-diphenyl-1-picrylhydrazine, whereby this reduction is accompanied by a depletion in the amount of the initial DPPH radicals and a change in the absorbance of the test solution accordingly, which can be detected relative to the blank solution at λ = 517 nm.
The antioxidant potencies of all synthesized compounds were investigated using a 1,1 diphenyl-2-picrylhydrazyl (DPPH) radical scavenging assay according to the protocol described by Bersuder et al.. In brief, a 0.5 mL volume of DPPH ethanolic solution was mixed with an equal volume of each sample concentration (i.e., the test compound or butylated hydroxytoluene, BHT, which was used as the reference antioxidant in the positive control experiment), shaken strongly, and incubated at room temperature for 1 h in darkness. The absorbance of the residual DPPH radicals was measured at λ = 519 nm and compared to the negative control (without the test compound or reference antioxidant). The DPPH radical scavenging power was calculated using the following formula: scavenging efficiency (%) = (1 − Acompound/AControl) × 100, where Acompound and Acontrol are the absorbance of the tested compound and the negative control, respectively. […] Additionally, the ± SD values were calculated from three independent triplicate measurements.

[7] = target: purified recombinant human LDHA protein (Homo sapiens, UniProt P00338); test: Lactate dehydrogenase A (LDHA) inhibitory assay; format: biochemical; settings: for inhibition at 100 µg/mL: at 0.1 mg/mL; for inhibition at 100 µg/mL / inhibition at 200 µg/mL: read-out: LDHA mean % inhibition ± SD; for inhibition at 200 µg/mL: at 0.2 mg/mL; for Fold change of LDHA inhibition as compared to 0.1 mg/mL: % inhibition at 0.200 mg/mL divided by % inhibition at 0.100 mg/mL
Procedure: The LDHA inhibitory effectiveness was investigated by measuring the amounts of consumed NADH [73]. […] The fluorescence of NADH, which has an excitation wavelength of 340 nm and an emission wavelength of 460 nm, was detected using a spectrofluorometer. […] The LDHA inhibitory efficiency was expressed as an inhibition percentage, which was determined via a comparison with the negative control experiments.

[8] = human umbilical vein endothelial cells (HUVEC), 200 µg/mL, read-out: Mean % of viable cells ± SD, HUVEC

| SMILES | viability at 200 µg/mL [1, 8] | Mean IC50 α-Amylase (AA) [2] | IC50 [2] | viability at 200 µg/mL [3] | IC50 [3] | Increase in COX-2 inhibitory efficiency by duplicating the concentration [4] | inhibition at 100 µg/mL [4] | inhibition at 200 µg/mL [4] | IC50 ([4]; mean ± SD of three replicates) | viability at 200 µg/mL ([5]; HCT-116, 48 h) | IC50 [5] | Mean IC50 for scavenging initial DPPH radicals [6] | IC50 [6] | inhibition at 100 µg/mL [7] | inhibition at 200 µg/mL [7] | IC50 ([7]; mean ± SD of three replicates) | Fold change of LDHA inhibition as compared to 0.1 mg/mL [7] | viability at 200 µg/mL [1] | viability at 200 µg/mL ([3]; 200 µg/mL) | viability at 200 µg/mL ([5]; HCT-116, 200 µg/mL, 48 h) |
| --- | --- | --- | --- | --- | --- | --- | --- | --- | --- | --- | --- | --- | --- | --- | --- | --- | --- | --- | --- | --- |
| O=c1c2cc(Br)ccc2[nH]c(=S)n1-c1ccc([N+](=O)[O-])cc1 [Compound 3g, 6-Bromo-3-(4-nitro-phenyl)-2-thioxo-2,3-dihydro-1H-quinazolin-4-one] | 98.7 ± 1.16% | 179.333 ± 7.768 µg/mL | 474 µM | 55.7 ± 3.06% | 222 µg/mL and 586 µM | 1.65 fold | 60 ± 2.83% | 98.9 ± 1.56% | 252 µM | 42.3 ± 2.52% | 168 µg/mL and 444 µM | 62.5 ± 2 µg/mL | 165 µM | 68.2 ± 4.6% | 100% | 242 µM | – | – | – | – |
| O=c1c2cc(Br)ccc2nc(SCc2cccc([N+](=O)[O-])c2)n1-c1ccc([N+](=O)[O-])cc1 [Compound 5g, 2-(3-Nitro-benzylsulfanyl)-6-bromo-3-(4-nitro-phenyl)-3H-quinazolin-4-one] | – | 339.000 ± 4.000 µg/mL | 660 µM | 74.7 ± 2.52% | – | 1.83 fold | 14.2 ± 1.77% | 26 ± 2.83% | – | 66.3 ± 3.06% | – | 200 ± 14 µg/mL | 390 µM | 15.8 ± 2.05% | 27.7 ± 2.55% | – | 1.75 fold | – | – | – |
| O=c1c2cc(Cl)ccc2[nH]c(=S)n1-c1ccc(C(F)(F)F)cc1 [Compound 3d, 6-Chloro-2-thioxo-3-(4-trifluoromethyl-phenyl)-2,3-dihydro-1H-quinazolin-4-one] | – | 335.667 ± 3.055 µg/mL | 941 µM | 87 ± 1.73% | – | 1.62 fold | 20.2 ± 1.13% | 32.8 ± 2.48% | – | 96 ± 1.73% | – | 179 ± 16 µg/mL | 502 µM | 33.5 ± 2.12% | 53.5 ± 2.12% | – | 1.59 fold | – | – | – |
| COc1cc2[nH]c(=S)n(-c3cccc(C(F)(F)F)c3)c(=O)c2cc1OC [Compound 3c, 6,7-Dimethoxy-2-thioxo-3-(3-trifluoromethyl-phenyl)-2,3-dihydro-1H-quinazolin-4-one] | – | 92.000 ± 3.000 µg/mL | 241 µM | 47.3 ± 2.52% | 275 µg/mL and 720 µM | 2.05 fold | 9.85 ± 1.63% | 20.2 ± 1.13% | – | 65 ± 3.61% | 281 µg/mL and 735 µM | 100 ± 14 µg/mL | 262 µM | 17.8 ± 1.56% | 30.8 ± 1.77% | – | 0.20 fold | 99.67 ± 0.577% | – | – |
| O=c1c2cc(Br)ccc2nc(SCc2ccc(Cl)cc2)n1-c1cccc(C(F)(F)F)c1 [Compound 5b, 2-(4-Chloro-benzylsulfanyl)-6-bromo-3-(3-trifluoromethyl-phenyl)-3H-quinazolin-4-one] | 96.33 ± 0.577% | 162.000 ± 5.568 µg/mL | 308 µM | – | 161 µg/mL and 306 µM | 2.11 fold | 9.25 ± 1.77% | 19.5 ± 2.12% | – | – | 246 µg/mL and 468 µM | 167 ± 10 µg/mL | 318 µM | 14.5 ± 1.13% | 22.5 ± 1.7% | – | 1.55 fold | – | 37.7 ± 2.52% | 60.3 ± 2.52% |
| O=c1c2cc(Br)ccc2[nH]c(=S)n1-c1ccc(C(F)(F)F)cc1 [Compound 3e, 6-Bromo-2-thioxo-3-(4-trifluoromethyl-phenyl)-2,3-dihydro-1H-quinazolin-4-one] | – | 252.00 ± 4.583 µg/mL | 628 µM | 90.7 ± 3.51% | – | 1.50 fold | 10.4 ± 1.7% | 15.7 ± 0.495% | – | 92.3 ± 2.52% | – | 290 ± 28 µg/mL | 723 µM | 22.1 ± 1.2% | 36 ± 1.34% | – | 1.62 fold | – | – | – |
